Source: patent publication US20080085886A1, “Aza-benzofuranyl compounds and methods of use” (GENENTECH, INC., priority 2006, published 2008)
Where a name gives a salt, the structure may show the parent alone. One block for each molecule: values may come before it.

How the values were obtained:
[1] = test system: HCT 116 human colorectal carcinoma / A375 human malignant melanoma cell lines; test: Cell proliferation assay (CellTiter-Glo), Example 3; assay type: cell-based; settings: in either one of the cell lines (HCT 116, A375), 72 h
Protocol: Example 3 Cell Proliferation Assay
Compounds are tested in a cell proliferation assay using the following cell lines:
HCT 116 human colorectal carcinoma (ATCC)
(§1) A375 human malignant melanoma (ATCC)
(§2) Both cell lines are maintained in DMEM/F12 (1:1) media (Gibco) supplemented with 10% FCS at 37° C. in a 5% CO2 humidified incubator.
Cells are seeded in 96-well plates at 2,000 cells/well and after 24 hours they are exposed to different concentrations of compounds in 0.83% DMSO. Cells are grown for a further 72 h, and an equal volume of CellTiter-Glo reagent (Promega) is added to each well. This lyses the cells and generates a luminescent signal proportional to the amount of ATP released (and therefore proportional to the number of cells in the well) that can be detected using a multiwell luminometer.
EC50 values are calculated using the XLfit software package (version 2.0.5).

[2] = test system: cellular p-ERK in HCT116 human colorectal carcinoma / A375 human malignant melanoma cell lines; test: Phospho-ERK cell-based assay (ELISA), Example 4; settings: in either one of the cell lines (HCT116, A375), 2 h or 24 h exposure
Protocol: Example 4 Phospho-ERK Cell-Based Assay
Compounds are tested in a cell-based phospho-ERK ELISA using the following cell lines:
HCT116 human colorectal carcinoma (ATCC)
as §1, §2
Cells are seeded in 96-well plates at 2,000 cells/well and after 24 h they are exposed to different concentrations of compounds in 0.83% DMSO. Cells are grown for a further 2 h or 24 h, fixed with formaldehyde (2% final) and permeabilised with methanol. Following blocking with TBST-3% BSA, fixed cells are incubated with primary antibody (anti-phospho ERK from rabbit) over-night at 4° C. Cells are incubated with Propidium Iodide (DNA fluorescent dye) and detection of cellular p-ERK is performed using an anti-rabbit secondary antibody conjugated to the fluorescent Alexa Fluor 488 dye (Molecular probes). The fluorescence is analysed using the Acumen Explorer (TTP Labtech), a laser-scanning microplate cytometer, and the Alexa Fluor 488 signal is normalised to the PI signal (proportional to cell number).
The EC50 is defined as the concentration at which a given compound achieves a signal half way between the baseline and the maximum response. EC50 values are calculated using the XLfit software package (version 2.0.5).

Compound: O=C(NOC1CNC1)c1oc2ccncc2c1Nc1ccc(I)cc1F [Example 41, 3-(2-Fluoro-4-iodo-phenylamino)-furo[3,2-c]pyridine-2-carboxylic acid (azetidin-3-yloxy)-amide mono formate salt]
- EC50 [1]: < 10 µM
- EC50 [2]: < 10 µM

Compound: CS(=O)(=O)NCCONC(=O)c1oc2ccncc2c1Nc1ccc(I)cc1F [Example 109, 3-(2-Fluoro-4-iodo-phenylamino)-furo[3,2-c]pyridine-2-carboxylic acid (2-methanesulfonylamino-ethoxy)-amide]
- EC50 [1]: < 10 µM
- EC50 [2]: < 10 µM

Compound: O=C(NOCCO)c1oc2c(-c3ccccc3)cncc2c1Nc1ccc(I)cc1F [Example 133, 3-(2-Fluoro-4-iodo-phenylamino)-7-phenyl-furo[3,2-c]pyridine-2-carboxylic acid (2-hydroxy-ethoxy)-amide]
- EC50 [1]: < 10 µM
- EC50 [2]: < 10 µM

Compound: Cc1cncc2c(Nc3ccc(I)cc3F)c(C(=O)NOCCO)oc12 [Example 134, 3-(2-Fluoro-4-iodo-phenylamino)-7-methyl-furo[3,2-c]pyridine-2-carboxylic acid (2-hydroxy-ethoxy)-amide]
- EC50 [1]: < 10 µM
- EC50 [2]: < 10 µM

Compound: O=C(NOC[C@H](O)CO)c1oc2c(Cl)cncc2c1Nc1ccc(I)cc1F [Example 138, 7-Chloro-3-(2-fluoro-4-iodo-phenylamino)-furo[3,2-c]pyridine-2-carboxylic acid ((R)-2,3-dihydroxy-propoxy)-amide]
- EC50 [1]: < 10 µM
- EC50 [2]: < 10 µM

Compound: O=C(NOC1CCCNC1)c1oc2ccncc2c1Nc1ccc(I)cc1F (stereo not shown) [Example 140, 3-(2-Fluoro-4-iodo-phenylamino)-furo[3,2-c]pyridine-2-carboxylic acid (piperdin-3-yloxy)-amide]
- EC50 [1]: < 10 µM
- EC50 [2]: < 10 µM

Compound: O=C(NOC[C@@H]1CCCN1)c1oc2ccncc2c1Nc1ccc(I)cc1F [Example 141, 3-(2-Fluoro-4-iodo-phenylamino)-furo[3,2-c]pyridine-2-carboxylic acid ((S)-1-pyrrolidin-2-ylmethoxy)-amide]
- EC50 [1]: < 10 µM
- EC50 [2]: < 10 µM

Compound: O=C(c1oc2ccncc2c1Nc1ccc(I)cc1F)N1C[C@H](O)[C@@H](O)[C@H]1CO [Example 160, (3-(2-fluoro-4-iodophenylamino)furo[3,2-c]pyridin-2-yl)((2R,3S,4S)-3,4-dihydroxy-2-(hydroxymethyl)pyrrolidin-1-yl)methanone]
- EC50 [1]: < 10 µM
- EC50 [2]: < 10 µM

Results, then the molecule that gave them:

- EC50 [1]: < 10 µM
- EC50 [2]: < 10 µM
Compound: O=C(NOC1CCOCC1)c1oc2ccncc2c1Nc1ccc(I)cc1F [Example 25, 3-(2-Fluoro-4-iodo-phenylamino)-furo[3,2-c]pyridine-2-carboxylic acid (tetrahydro-pyran-4-yloxy)-amide]

- EC50 [1]: < 10 µM
- EC50 [2]: < 10 µM
Compound: O=C(c1oc2ccncc2c1Nc1ccc(I)cc1F)N1CC(O)CO1 (stereo not shown) [Example 28, [3-(2-Fluoro-4-iodo-phenylamino)-furo[3,2-c]pyridin-2-yl]-(4-hydroxy-isoxazolidin-2-yl)-methanone]

- EC50 [1]: < 10 µM
- EC50 [2]: < 10 µM
Compound: NCCONC(=O)c1oc2ccncc2c1Nc1ccc(I)cc1F [Example 31, 3-(2-Fluoro-4-iodo-phenylamino)-furo[3,2-c]pyridine-2-carboxlic acid (2-amino-ethoxy)-amide]

- EC50 [1]: < 10 µM
- EC50 [2]: < 10 µM
Compound: CSc1ccc(Nc2c(C(=O)NOCCO)oc3ccncc23)c(F)c1 [Example 35, 3-(2-Fluoro-4-methylsulfanyl-phenylamino)-furo[3,2-c]pyridine-2-carboxylic acid (2-hydroxy-ethoxy)-amide]

- EC50 [1]: < 10 µM
- EC50 [2]: < 10 µM
Compound: O=C(NO[C@H]1CCNC1)c1oc2ccncc2c1Nc1ccc(I)cc1F [Example 38, 3-(2-Fluoro-4-iodo-phenylamino)-furo[3,2-c]pyridine-2-carboxylic acid ((S)-pyrrolidin-3-yloxy)-amide mono formate salt]

- EC50 [1]: < 10 µM
- EC50 [2]: < 10 µM
Compound: O=C(NOCCO)c1oc2c(Cl)cncc2c1Nc1ccc(I)cc1F [Example 39, 7-Chloro-3-(2-fluoro-4-iodo-phenyl-amino)-furo[3,2-c]pyridine-2-carboxylic acid (2-hydroxy-ethoxy)-amide]
